Assay [1] relates to APT73 (SEQ ID NO: 4) variant APT73.13 (S205R, G282R, A283C, S284L; residues 285 onward removed from the C-terminus), SEQ ID NO: 36. Description: Kinetic characterization of purified enzyme with OA and GPP as substrates. Type of assay: biochemical. The settings on record: APT73.13, purified enzyme. As for the experimental part: (§1) In order to compare the enzyme's activities more accurately, larger cultures of the best hits and controls from the first screen were grown and the enzymes were purified according to the following protocol. Glycerol stocks of each recombinant strain were used to inoculate 2 mL of LB with 50 μg/mL kanamycin. […]. The cultures were grown at 37° C. with 250 rpm shaking until an OD600 of approximately 0.8-1. At this point, the cultures were transferred to a shaker at room temperature for 30 min, after which they were induced with 0.25 mM IPTG. After 16 h at 150 rpm shaking, the cells were pelleted by centrifugation
(§2) Cell pellets were resuspended in 10 mL lysis buffer (B-PER with 5 mM MgCl2, 100 μg/mL lysozyme, and 2 μL/mL DNaseI (TURBO DNase ThermoFisher)). After incubation at room temperature for 10 min, the cell debris were removed by centrifugation at 4750 rpm for 10 min at 4° C. Lysates were loaded in pre-equilibrated cobalt spin columns (ThermoFisher, HisPur Cobalt spin column, 1 mL) and tagged proteins were purified according to manufacturer's protocol. The eluted proteins were exchanged into the final buffer (TrisHCl 25 mM, 5 mM MgCl2, 150 mM NaCl 10% v/v glycerol) using Amicon Ultra 15 centrifugal filters (10 kDa MWCO). Proteins can be stored at −20° C. for at least a week.
(§3) Selected mutants from the previous screenings were cloned in E. coli vectors and were purified as described in Example 3.

The subject of assay [2] is APT73 (SEQ ID NO: 4) variant APT73.30 (S205R, S223A, K225H, A260G, Y276L, G282R, A283C, S284L; residues 285 onward removed from the C-terminus), SEQ ID NO: 56. Described as above. It counts as biochemical. The settings on record: APT73.30, purified enzyme. As for the experimental part:
as §1, §2, §3

Assay [3] relates to APT73 (SEQ ID NO: 4) variant APT73.47 (A156I, S205R, S223A, K225H, A260G, Y276L, G282R, A283C, S284L; residues 285 onward removed from the C-terminus), SEQ ID …. The assay is described as above. The settings on record: APT73.47, purified enzyme. It counts as biochemical. As for the experimental part:
as §1, §2, §3

Assay [4] relates to APT73 (SEQ ID NO: 4) variant APT73.52 (S205R, S223A, K225H, A260G, Y276E, G282R, A283C, S284L; residues 285 onward removed from the C-terminus), SEQ ID NO: 69. The description is as above. It counts as biochemical. The settings on record: APT73.52, purified enzyme. On the procedure: as §1, §2, §3
Assay [5] concerns APT89, aromatic prenyltransferase, wild type, SEQ ID NO: 2 (expressed with His tag: SEQ ID NO: 9, 81). Described as above. Type of assay: biochemical. On the procedure: as §1, §2, §3
Assay [6] concerns NphB, aromatic prenyltransferase from Streptomyces sp. (strain CL190), wild type, Uniprot ID: Q4R2T2, SEQ ID NO: 20. The settings on record: OA and GPP as substrates, from literature (Valliere et al. Nature Commun. 2019, 10, 565); cited from earlier work.

As usually defined, the Km is the concentration of substrate that gives half-maximal velocity.

Consider `CCCCCc1cc(O)c(C/C=C(\C)CCC=C(C)C)c(O)c1C(=O)O` [CBGA, cannabigerolic acid], for which the “Kcat (CBGA)” value stood at 0.049 s⁻¹ in assay [1]; 0.113 s⁻¹ in assay [2]; 0.175 s⁻¹ in assay [3]; 0.08 s⁻¹ in assay [4]; 0.001 s⁻¹ in assay [5].

Take `CCCCCc1cc(O)cc(O)c1C(=O)O` [OA, olivetolic acid]: the Km in assay [1] is 1100 ± 93 µM; in assay [2], 501 ± 88 µM; in assay [3] it was 205 ± 165 µM; in assay [4] it was 101 ± 14 µM; in assay [5], 33 ± 4 µM; in assay [6], 640 µM.

The record behind these values is US20250346871A1, “PRENYLTRANSFERASES AND METHODS OF MAKING AND USE THEREOF” (priority 2020, published 2025).
